What is called Ki is the equilibrium dissociation constant of an inhibitor or competing ligand from its target.

The structures appear in SMILES notation. Some results are limits rather than exact numbers.

For one data set, the target named is T1, adenosine A1 receptor (Homo sapiens, UniProt P30542).
T1 construct: purchased Receptor Biology, Inc. (USA)
T1 sequence (P30542 1-326): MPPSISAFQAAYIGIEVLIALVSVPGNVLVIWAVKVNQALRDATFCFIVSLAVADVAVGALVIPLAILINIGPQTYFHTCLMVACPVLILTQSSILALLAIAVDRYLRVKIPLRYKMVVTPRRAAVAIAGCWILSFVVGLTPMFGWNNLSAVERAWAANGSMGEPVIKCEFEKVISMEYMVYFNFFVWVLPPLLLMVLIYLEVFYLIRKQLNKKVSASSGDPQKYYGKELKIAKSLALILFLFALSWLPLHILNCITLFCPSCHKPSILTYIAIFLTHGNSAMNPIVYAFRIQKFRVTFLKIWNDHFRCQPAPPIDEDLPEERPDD
Nature of the data set: Adenosine receptor subtypes competition radioligand binding assay, A1 receptor. To be noted: human recombinant membranes. An excerpt: (§1) Adenosine Receptor Subtypes Competition Radioligand Binding Assay
(§2) Human recombinant membranes with adenosine receptors were purchased from Receptor Biology, Inc. (USA).

The target of the next data set is T2, human A3 receptors (Homo sapiens, UniProt P0DMS8).
T2 construct: purchased Receptor Biology, Inc. (USA); host or cells: CHO cells
T2 sequence (P0DMS8 1-318): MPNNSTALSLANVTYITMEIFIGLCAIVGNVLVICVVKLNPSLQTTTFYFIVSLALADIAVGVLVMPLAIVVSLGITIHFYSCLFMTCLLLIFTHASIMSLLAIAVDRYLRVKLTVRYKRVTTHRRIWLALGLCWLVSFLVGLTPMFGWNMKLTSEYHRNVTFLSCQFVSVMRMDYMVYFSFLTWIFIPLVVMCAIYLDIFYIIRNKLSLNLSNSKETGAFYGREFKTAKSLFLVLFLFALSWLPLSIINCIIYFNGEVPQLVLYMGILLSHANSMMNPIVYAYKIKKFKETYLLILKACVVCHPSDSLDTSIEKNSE
Nature of the data set: Adenosine receptor subtypes competition radioligand binding assay, A3 receptor ([3H]-NECA). The following applies: membranes from human A3 receptors transfected to CHO cells, 60 min at 25° C. How it is done:
as §1, §2
Competitive assays were carried out by incubation of membranes from human A3 receptors transfected to CHO cells, [^3H]-NECA, buffer (20 mM HEPES (pH 7.4), 100 mM NaCl, 10 mM MgCl2, 2 units/ml adenosine deaminase), and unlabelled ligand in a total volume of 0.2 ml for 60 min at 25° C. R-PIA was used to determine nonspecific binding. It was filtered over Schleicher & Schuell GF/52 (presoaked with 0.5% polyethyleneimine) in a Brandel cell harvester. The unbound radioligand was removed with 3×250 μl of 20 mM HEPES (pH 7.4), 100 mM NaCl, 10 mM MgCl2.
In Table 1, binding constants to adenosine A3 receptor obtained for some examples are shown.

Data set [1] relates to intestinal inflammation and spontaneous colitis. The following applies: mice; cited from earlier work.
Data set [2] deals with ischemia induced renal failure. The following applies: rats, ischemia induced with micro aneurysm clips after pretreatment; cited from earlier work.
For a further data set, the system named is rheumatoid arthritis. The following applies: RA patients, oral administration twice daily for 12 weeks; cited from earlier work.
The subject of data set [3] is experimental autoimmune uveitis. The following applies: experimental autoimmune uveitis model; cited from earlier work.

As to `COc1ccc(-c2nc(NC(=O)c3cccc(C(=O)O)c3)sc2C#N)cc1` [Example 6, 3-(5-cyano-4-(4-methoxyphenyl)thiazol-2-ylcarbamoyl)benzoic Acid], the results for the Ki on adenosine A1 receptor and on human A3 receptors were above 1000 nM and 10 nM, respectively.
`COc1ccc(-c2nc(NC(=O)c3ccc(C(=O)O)s3)sc2C#N)cc1` [Example 8, 5-(5-cyano-4-(4-methoxyphenyl)thiazol-2-ylcarbamoyl)thiophene-2-carboxylic Acid]: the Ki on adenosine A1 receptor was above 1000 nM; on human A3 receptors it was 23 nM.
In the same order, the values of `N#Cc1sc(NC(=O)c2ccc(C(=O)O)s2)nc1-c1ccc(F)cc1` [Example 13, 5-(5-cyano-4-(4-fluorophenyl)thiazol-2-ylcarbamoyl)thiophene-2-carboxylic Acid] are 131 nM and 66 nM.
On to `N#Cc1sc(NC(=O)c2ccc(C(=O)O)s2)nc1-c1ccccc1F` [Example 15, 5-(5-cyano-4-(2-fluorophenyl)thiazol-2-ylcarbamoyl)thiophene-2-carboxylic Acid], for which the Ki on adenosine A1 receptor was above 500 nM; on human A3 receptors, 99 nM.
Consider `N#Cc1sc(NC(=O)c2ccc(C(=O)O)s2)nc1-c1ccccc1` [Example 22, 5-(5-cyano-4-phenylthiazol-2-ylcarbamoyl)thiophene-2-carboxylic Acid], for which the Ki is 87 nM at adenosine A1 receptor and 66 nM on human A3 receptors.
The compound `N#Cc1sc(NC(=O)c2ccc(C(=O)O)s2)nc1-c1cccs1` [Example 25, 5-((5-cyano-4-(thiophen-2-yl)thiazol-2-yl)carbamoyl)thiophene-2-carboxylic Acid] returned a Ki on human A3 receptors of 36 nM.
Take `N#Cc1sc(NC(=O)c2ccc(C(=O)O)s2)nc1-c1cc(Cl)cs1` [Example 26, 5-((4-(4-chlorothiophen-2-yl)-5-cyanothiazol-2-yl)carbamoyl)thiophene-2-carboxylic Acid]: the Ki at human A3 receptors is 12 nM.
As for `COc1ccc(-c2nc(NC(=O)c3cccc(C(=O)O)c3)sc2C#N)cn1` [Example 37, 3-(5-cyano-4-(6-methoxypyridin-3-yl)thiazol-2-ylcarbamoyl)benzoic Acid], the Ki at adenosine A1 receptor is above 1000 nM; at human A3 receptors it was 99 nM.
Consider `O=C(O)c1ccc(C(=O)Nc2nc(-c3ccccc3)c(Cl)s2)s1` [Example 38, 5-(5-chloro-4-phenylthiazole-2-ylcarbamoyl)thiophene-2-carboxylic Acid], for which the Ki on adenosine A1 receptor turned out to be 34 nM; on human A3 receptors it was 21 nM.
For `O=C(O)c1ccc(C(=O)Nc2nc(-c3ccccc3)c(F)s2)s1` [Example 41, 5-(5-fluoro-4-phenylthiazol-2-ylcarbamoyl)thiophene-2-carboxylic Acid] the same measures were 64 nM and 10 nM.
In the same order, the values of `COc1ccc(-c2nc(NC(=O)c3ccc(C(=O)O)s3)sc2Cl)cc1` [Example 44, 5-(5-chloro-4-(4-methoxyphenyl)thiazol-2-ylcarbamoyl)thiophene-2-carboxylic Acid] are above 1000 nM and 24 nM.
As for `CNC(=O)[C@H]1O[C@@H](n2cnc3c(NCc4cccc(I)c4)ncnc32)[C@H](O)[C@@H]1O` [IB-MECA, N6-(3-iodobenzyl)-adenosine-5′-N-methyluronamide], in data set [1], the “Effect on intestinal inflammation and spontaneous colitis” value is “ameliorate intestinal inflammation and spontaneous colitis”. Also, the “Effect of pretreatment on ischemia induced renal failure” value in data set [2] is listed as “harmful”. Also, in the data set on rheumatoid arthritis, the “Effect on disease signs and symptoms” value was “improvement of disease signs and symptoms”; the Safety and tolerability entry was “safe, well tolerated”. The “Effect on clinical and pathological manifestations of uveitis” value in data set [3] is “inhibited the clinical and pathological manifestations of uveitis”.

Source of the values: patent publication US10238637B2, “Modulators of the adenosine A3 receptors” (PALOBIOFARMA, S.L., priority 2015, dated 2019).
